Assays:
[1] = Antitumor activity against human Bel7404 cells xenografted in BALB/c nude mouse assessed as tumor volume at 10 mg/kg, ig administered via oral gavage once daily for 14 consecutive days measured on day 7 (reference value: 284.68 +/- 74.36 mm3); type: functional, BEL-7404
[2] = Potency index, ratio of paclitaxel GI50 to compound GI50 against human NCI60 cells; type: functional
[3] = Antitumor activity against human Bel7404 cells xenografted in BALB/c nude mouse assessed as tumor volume at 10 mg/kg, ig administered via oral gavage once daily for 14 consecutive days measured on day 17 (reference value: 747.40 +/- 169.75 mm3); type: functional, BEL-7404
A549 [4] = test: Inhibition of mTORC2 in human A549 cells assessed as reduction in AKT phosphorylation at serine473 residues after 30 mins by Western blot analysis; type: cell-based
A549 [5] = test: Antitumor activity against human A549 cells xenografted in BALB/c nude mouse assessed as tumor growth inhibition administered ig via oral gavage once daily for 14 consecutive days measured on day 30; type: functional, cell-based
[6] = Ratio of Cmax in Sprague-Dawley rat to IC50 for human A549 cells
[7] = AUC (0 to infinity) in Sprague-Dawley rat at 2 mg/kg, iv by LCMS analysis; type: ADME, organism-based; design: dose 2 mg/kg, time infinity, route intravenous; conditions: in vivo
[8] = Potency index, ratio of camptothecin GI50 to compound GI50 against human NCI60 cells; type: functional
[9] = Oral bioavailability in Sprague-Dawley rat at 20 mg/kg administered via gavage as single dose by LCMS analysis; type: ADME, organism-based; conditions: in vivo
[10] = Antitumor activity against human A549 cells xenografted in BALB/c nude mouse assessed as tumor volume at 10 mg/kg, ig administered via oral gavage once daily for 14 consecutive days measured on day 1 (reference value: 156.87 +/- 22.32 mm3); type: functional
[11] = Half life in rat microsomes; type: ADME, Microsome
Mus musculus [12] = test: Toxicity in nude BALB/c mouse xenografted with human A549 cells assessed as body weight at 10 mg/kg, ig administered via oral gavage once daily for 14 consecutive days measured on day 4 (reference value: 24.77 +/- 0.93 g); type: organism-based; conditions: in vivo
Mus musculus [13] = test: Toxicity in nude BALB/c mouse xenografted with human A549 cells assessed as body weight at 10 mg/kg, ig administered via oral gavage once daily for 14 consecutive days measured on day 8 (reference value: 25.66 +/- 1.04 g); type: organism-based; conditions: in vivo
[14] = Antitumor activity against human Bel7404 cells xenografted in BALB/c nude mouse assessed as tumor volume at 10 mg/kg, ig administered via oral gavage once daily for 14 consecutive days measured on day 3 (reference value: 176.17 +/- 57.63 mm3); type: functional, BEL-7404
[15] = Half life in Sprague-Dawley rat at 20 mg/kg administered via oral gavage as single dose by LCMS analysis; type: ADME, organism-based; conditions: in vivo
[16] = Antitumor activity against human Bel7404 cells xenografted in BALB/c nude mouse assessed as tumor volume at 10 mg/kg, ig administered via oral gavage once daily for 14 consecutive days measured on day 1 (reference value: 101.62 +/- 26.48 mm3); type: functional, BEL-7404
[17] = Antitumor activity against human A549 cells xenografted in BALB/c nude mouse assessed as tumor volume at 10 mg/kg, ig administered via oral gavage once daily for 14 consecutive days measured on day 18 (reference value: 3045.91 +/- 854.27 mm3); type: functional
[18] = Antitumor activity against human A549 cells xenografted in BALB/c nude mouse assessed as tumor volume at 10 mg/kg, ig administered via oral gavage once daily for 14 consecutive days measured on day 8 (reference value: 840.07 +/- 205.19 mm3); type: functional
[19] = Antitumor activity against human A549 cells xenografted in BALB/c nude mouse assessed as tumor volume at 10 mg/kg, ig administered via oral gavage once daily for 14 consecutive days measured on day 11 (reference value: 1327.66 +/- 404.92 mm3); type: functional
Mus musculus [20] = test: Toxicity in nude BALB/c mouse xenografted with human A549 cells assessed as mortality at 10 mg/kg, ig administered via oral gavage once daily for 14 consecutive days measured on day 30; type: organism-based; conditions: in vivo
[21] = Cmax in Sprague-Dawley rat at 20 mg/kg administered via oral gavage as single dose by LCMS analysis; type: ADME, organism-based; design: dose 20 mg/kg, route oral; conditions: in vivo
[22] = Antitumor activity against human A549 cells xenografted in BALB/c nude mouse assessed as tumor growth inhibition at 10 mg/kg, ig administered via oral gavage once daily for 14 consecutive days measured on day 30 relative to control; type: functional; conditions: 720 h, read-out: TGI
[23] = Antitumor activity against human Bel7404 cells xenografted in BALB/c nude mouse assessed as tumor volume at 10 mg/kg, ig administered via oral gavage once daily for 14 consecutive days measured on day 10 (reference value: 425.92 +/- 102.32 mm3); type: functional, BEL-7404
[24] = Cmax in Sprague-Dawley rat at 2 mg/kg, iv by LCMS analysis; type: ADME, organism-based; design: dose 2 mg/kg, route intravenous; conditions: in vivo
[25] = Time at which maximum plasma concentration stays above in vitro IC50 for human A549 cells in Sprague-Dawley rat at 20 mg/kg, po administered as single dose; type: ADME, organism-based; conditions: in vivo
[26] = AUC (0 to infinity) in Sprague-Dawley rat at 20 mg/kg administered via oral gavage as single dose by LCMS analysis; type: ADME, organism-based; design: dose 20 mg/kg, route oral, time infinity; conditions: in vivo
cells = conditions: Homo sapiens, HCT-116, 72 h
[27] = Antitumor activity against human Bel7404 cells xenografted in BALB/c nude mouse assessed as tumor volume at 10 mg/kg, ig administered via oral gavage once daily for 14 consecutive days measured on day 14 (reference value: 589.54 +/- 162.22 mm3); type: functional, BEL-7404
A549 [28] = test: Inhibition of PI3K in human A549 cells assessed as reduction in AKT phosphorylation at threonine308 residues after 30 mins by Western blot analysis; type: cell-based
Mus musculus [29] = test: Toxicity in nude BALB/c mouse xenografted with human A549 cells assessed as body weight at 10 mg/kg, ig administered via oral gavage once daily for 14 consecutive days measured on day 11 (reference value: 26.11 +/- 1.06 g); type: organism-based; conditions: in vivo
[30] = Antitumor activity against human Bel7404 cells xenografted in BALB/c nude mouse assessed as tumor growth inhibition at 10 mg/kg, ig administered via oral gavage once daily for 14 consecutive days measured on day 29; type: functional; conditions: BEL-7404, po, 696 h, read-out: TGI
Mus musculus [31] = test: Toxicity in nude BALB/c mouse xenografted with human A549 cells assessed as body weight at 10 mg/kg, ig administered via oral gavage once daily for 14 consecutive days measured on day 1 (reference value: 24.38 +/- 0.76 g); type: organism-based; conditions: in vivo
[32] = Antitumor activity against human A549 cells xenografted in BALB/c nude mouse assessed as tumor volume at 10 mg/kg, ig administered via oral gavage once daily for 14 consecutive days measured on day 4 (reference value: 419.55 +/- 104.72 mm3); type: functional
[33] = Antitumor activity against human A549 cells xenografted in BALB/c nude mouse assessed as tumor volume at 10 mg/kg, ig administered via oral gavage once daily for 14 consecutive days measured on day 15 (reference value: 2071.51 +/- 682.84 mm3); type: functional
[34] = Cytotoxicity against human A549 cells after 72 hrs by MTT assay; type: functional, cell-based; conditions: A549, 72 h
Mus musculus [35] = test: Toxicity in nude BALB/c mouse xenografted with human A549 cells assessed as body weight at 10 mg/kg, ig administered via oral gavage once daily for 14 consecutive days measured on day 15 (reference value: 27.12 +/- 1.43 g); type: organism-based; conditions: in vivo
Mus musculus [36] = test: Toxicity in nude BALB/c mouse xenografted with human A549 cells assessed as body weight at 10 mg/kg, ig administered via oral gavage once daily for 14 consecutive days measured on day 18 (reference value: 27.75 +/- 1.41 g); type: organism-based; conditions: in vivo
[37] = Antitumor activity against human Bel7404 cells xenografted in BALB/c nude mouse assessed as tumor growth inhibition at 50 mg/kg, ig administered via oral gavage once daily for 14 consecutive days measured on day 29; type: functional; conditions: BEL-7404, po, 696 h, read-out: TGI
[38] = Antitumor activity against human Bel7404 cells xenografted in BALB/c nude mouse assessed as tumor volume at 50 mg/kg, ig administered via oral gavage once daily for 14 consecutive days measured on day 14 (reference value: 589.54 +/- 162.22 mm3); type: functional, BEL-7404
[39] = Antitumor activity against human Bel7404 cells xenografted in BALB/c nude mouse assessed as tumor volume at 50 mg/kg, ig administered via oral gavage once daily for 14 consecutive days measured on day 17 (reference value: 747.40 +/- 169.75 mm3); type: functional, BEL-7404
[40] = Antitumor activity against human Bel7404 cells xenografted in BALB/c nude mouse assessed as tumor volume at 50 mg/kg, ig administered via oral gavage once daily for 14 consecutive days measured on day 7 (reference value: 284.68 +/- 74.36 mm3); type: functional, BEL-7404
[41] = Antitumor activity against human Bel7404 cells xenografted in BALB/c nude mouse assessed as tumor volume at 50 mg/kg, ig administered via oral gavage once daily for 14 consecutive days measured on day 10 (reference value: 425.92 +/- 102.32 mm3); type: functional, BEL-7404
[42] = Antitumor activity against human Bel7404 cells xenografted in BALB/c nude mouse assessed as tumor volume at 50 mg/kg, ig administered via oral gavage once daily for 14 consecutive days measured on day 3 (reference value: 176.17 +/- 57.63 mm3); type: functional, BEL-7404
[43] = Antitumor activity against human Bel7404 cells xenografted in BALB/c nude mouse assessed as tumor volume at 50 mg/kg, ig administered via oral gavage once daily for 14 consecutive days measured on day 1 (reference value: 101.62 +/- 26.48 mm3); type: functional, BEL-7404

`COc1ncc(-c2ccc3nccc(-c4ccc(CN(C)C)cc4)c3c2)cc1NS(=O)(=O)c1ccc(F)cc1F` showed an Activity [1] of 135.38 mm3, a RatioGI50 [2] of 2 and an Activity [3] of 220.21 mm3. The inhibition (A549 [4]) was “Dose-dependent effect”, the TGI (A549 [5]) was “Dose-dependent effect” and the Ratio [6] was over 2800. The AUC(0-inf) [7] was 3740 ng·h/mL, the RatioGI50 [8] was 2 and the bioavailability [9] was 95%. It also gave an Activity [10] of 149.23 mm3, a half-life [11] of 0.767 h and an Activity (Mus musculus [12]) of 24.17 g. It also gave an Activity (Mus musculus [13]) of 24.23 g, an Activity [14] of 123.3 mm3 and a half-life [15] of 4.41 h. The Activity [16] was 90.39 mm3, the Activity [17] was 748.11 mm3 and the Activity [18] was 330.06 mm3. For the same compound, the Activity [19] was 432.38 mm3, the Activity (Mus musculus [20]) was “Non-Toxic” and the Cmax [21] was 7120 ng/mL. The inhibition in vivo at 10 mg/kg [22] was 73.5%, the Activity [23] was 152.31 mm3 and the Cmax [24] was 1000 ng/mL. For the same compound, the Time [25] was 0.5 h, the AUC(0-inf) [26] was 35600 ng·h/mL and the IC50 (cells) was 3 nM. The Activity [27] was 187.5 mm3, the inhibition (A549 [28]) was “Dose-dependent effect” and the Activity (Mus musculus [29]) was 23.77 g. It also gave an inhibition in vivo at 10 mg/kg [30] of 70.6%, an Activity (Mus musculus [31]) of 25.13 g and an Activity [32] of 224.6 mm3. The Activity [33] was 536.2 mm3, the IC50 [34] was 4.4 nM and the Activity (Mus musculus [35]) was 23.42 g. It also gave an Activity (Mus musculus [36]) of 23.92 g.

`CNC(=O)c1cc(Oc2ccc(NC(=O)Nc3ccc(Cl)c(C(F)(F)F)c3)cc2)ccn1` [SORAFENIB] showed an inhibition in vivo at 50 mg/kg [37] of 43.8%, an Activity [38] of 334.93 mm3 and an Activity [39] of 413.79 mm3. The Activity [40] was 206.94 mm3, the Activity [41] was 257.88 mm3 and the Activity [42] was 136.23 mm3. It also gave an Activity [43] of 97.11 mm3.
